The values that follow come from patent US10493125B2 (Merck Sharp & Dohme Corp., priority 2015, dated 2019).

SMILES strings stand for the structures.

The target of one test is T1, human GLP1R (Homo sapiens, UniProt P43220).
T1 construct: expressed in transfected cells
Briefly: cAMP activity assay (HitHunter cAMP XS), cells expressing human GLP1R. In kind it is cell-based. The conditions noted are these: Table 2; cAMP production; read-out: EC50 hGLP1R. Here is the method: (§1) Peptides were dissolved in 100% DMSO and serially diluted to generate 10 point titrations. The peptide solutions were then transferred into 384-well assay plates (150 nL/well). Assay ready frozen cells expressing human GLP1R or human GCGR were suspended in growth media consisting of DMEM medium (GIBCO), 10% FBS (GIBCO), 1×NEAA(GIBCO), 1× P/S (GIBCO), 10 ug/ml Blasticidin (GIBCO) and 200 μg/mL Hygromycin (GIBCO). […] The cell suspensions (15 μL) were then added to the assay plates containing the peptide solutions (30,000 cells/well for human GCGR; 10,000 cells/well for human GLP1R). The cells were incubated for 1 hour at room temperature in the dark. Production of cAMP was determined using HitHunter™ cAMPXS kits (DiscoverX) following manufacturer protocol. The plates were incubated for overnight at room temperature in the dark. Luminescence was measured using an EnVision Multilabel plate reader (Perkin Elmer). […] EC50 values were calculated using uses a 4 parameter logistic fit based on the Levenberg-Marquardt algorithm.

The target in a further test is T2, human GCGR (Homo sapiens, UniProt P47871).
T2 construct: expressed in transfected cells
The test can be described thus: cAMP activity assay (HitHunter cAMP XS), cells expressing human GCGR. In kind it is cell-based. The conditions noted are these: for EC50: Table 2, cAMP production, read-out: EC50 hGCGR. Here is the method: as §1
A general note: cAMP levels reflect the balance of adenylyl cyclase and phosphodiesterase activity.

T2 sequence (P47871 26-477): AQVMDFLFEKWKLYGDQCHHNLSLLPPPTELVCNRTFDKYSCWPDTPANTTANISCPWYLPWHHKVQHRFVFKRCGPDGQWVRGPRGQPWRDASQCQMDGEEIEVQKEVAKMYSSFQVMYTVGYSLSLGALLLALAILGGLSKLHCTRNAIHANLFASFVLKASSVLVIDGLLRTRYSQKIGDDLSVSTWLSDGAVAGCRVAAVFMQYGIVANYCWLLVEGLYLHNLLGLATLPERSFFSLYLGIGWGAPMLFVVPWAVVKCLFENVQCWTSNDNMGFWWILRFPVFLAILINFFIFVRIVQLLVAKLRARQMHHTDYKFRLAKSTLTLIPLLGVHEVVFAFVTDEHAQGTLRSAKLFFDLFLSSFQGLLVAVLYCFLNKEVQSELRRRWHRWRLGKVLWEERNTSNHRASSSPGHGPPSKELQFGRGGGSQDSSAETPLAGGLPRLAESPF
T1 sequence (P43220 24-463): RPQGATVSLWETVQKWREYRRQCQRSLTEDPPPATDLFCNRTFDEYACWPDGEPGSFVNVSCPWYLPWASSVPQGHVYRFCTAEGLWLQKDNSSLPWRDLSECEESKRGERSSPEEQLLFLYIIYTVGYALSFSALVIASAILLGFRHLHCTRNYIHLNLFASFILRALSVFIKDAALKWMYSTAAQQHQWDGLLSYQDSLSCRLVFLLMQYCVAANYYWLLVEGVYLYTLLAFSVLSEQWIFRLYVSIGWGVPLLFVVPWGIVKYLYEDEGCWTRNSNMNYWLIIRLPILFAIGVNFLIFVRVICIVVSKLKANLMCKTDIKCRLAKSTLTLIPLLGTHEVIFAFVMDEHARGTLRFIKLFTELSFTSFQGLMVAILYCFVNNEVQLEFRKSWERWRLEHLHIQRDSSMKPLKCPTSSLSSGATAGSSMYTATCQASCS

`CC(C)C[C@H](NC(=O)[C@H](Cc1ccc(O)cc1)NC(=O)[C@H](CCCCN)NC(=O)[C@H](CO)NC(=O)[C@H](Cc1ccc(O)cc1)NC(=O)[C@H](CC(=O)O)NC(=O)[C@H](CO)NC(=O)[C@@H](NC(=O)[C@H](Cc1ccccc1)NC(=O)[C@@H](NC(=O)CNC(=O)[C@H](CCC(N)=O)NC(=O)[C@H](CO)NC(=O)[C@@H](N)Cc1c[nH]cn1)[C@@H](C)O)[C@@H](C)O)C(=O)N[C@@H](CC(=O)O)C(=O)N[C@@H](Cc1c[nH]c2ccccc12)C(=O)N[C@@H](CCCNC(=N)N)C(=O)N[C@@H](CCCNC(=N)N)C(=O)N[C@@H](C)C(=O)N[C@@H](CCC(N)=O)C(=O)N[C@@H](CC(=O)O)C(=O)N[C@@H](Cc1ccccc1)C(=O)N[C@H](C(=O)N[C@@H](CCC(N)=O)C(=O)N[C@@H](Cc1c[nH]c2ccccc12)C(=O)N[C@@H](CC(C)C)C(=O)N[C@@H](CC(C)C)C(=O)N[C@@H](CC(N)=O)C(=O)N[C@H](C(N)=O)[C@@H](C)O)C(C)C` [PD23]: the half-maximal effective concentration (EC50) (usually the concentration needed to bring the measured effect to its halfway point) at human GLP1R was 0.05 nM; at human GCGR, 0.03 nM.

For the molecule `CC[C@H](C)[C@H](NC(=O)[C@H](CC(C)C)NC(=O)[C@H](Cc1c[nH]c2ccccc12)NC(=O)[C@H](CCC(N)=O)NC(=O)[C@@H](NC(=O)[C@H](Cc1ccccc1)NC(=O)[C@H](CC(=O)O)NC(=O)[C@H](CCC(N)=O)NC(=O)[C@H](C)NC(=O)[C@H](CCCNC(=N)N)NC(=O)[C@H](CCCNC(=N)N)NC(=O)[C@H](C)NC(=O)[C@H](CC(=O)O)NC(=O)[C@H](CC(C)C)NC(=O)[C@H](Cc1ccc(O)cc1)NC(=O)[C@H](CCCCN)NC(=O)[C@H](CO)NC(=O)[C@H](Cc1ccc(O)cc1)NC(=O)[C@H](CC(=O)O)NC(=O)[C@H](CO)NC(=O)[C@@H](NC(=O)[C@H](Cc1ccccc1)NC(=O)[C@@H](NC(=O)CNC(=O)[C@H](CCC(N)=O)NC(=O)[C@H](CO)NC(=O)[C@@H](N)Cc1c[nH]cn1)[C@@H](C)O)[C@@H](C)O)C(C)C)C(=O)N[C@@H](CCCNC(=N)N)C(=O)N[C@H](C(N)=O)[C@@H](C)O` [PD25], the results for the EC50 on human GLP1R and on human GCGR were 0.02 nM and 0.04 nM, respectively.

Regarding `CC[C@H](C)[C@H](NC(=O)[C@H](CC(C)C)NC(=O)[C@H](Cc1c[nH]c2ccccc12)NC(=O)[C@H](CCC(N)=O)NC(=O)[C@@H](NC(=O)[C@H](Cc1ccccc1)NC(=O)[C@H](CC(=O)O)NC(=O)[C@H](CCC(N)=O)NC(=O)[C@H](C)NC(=O)[C@H](CCCNC(=N)N)NC(=O)[C@H](CCCNC(=N)N)NC(=O)[C@H](CO)NC(=O)[C@H](CC(=O)O)NC(=O)[C@H](CC(C)C)NC(=O)[C@H](Cc1ccc(O)cc1)NC(=O)[C@H](CCCCN)NC(=O)[C@H](CO)NC(=O)[C@H](Cc1ccc(O)cc1)NC(=O)[C@H](CC(=O)O)NC(=O)[C@H](CO)NC(=O)[C@@H](NC(=O)[C@H](Cc1ccccc1)NC(=O)[C@@H](NC(=O)CNC(=O)[C@H](CCC(N)=O)NC(=O)[C@H](CO)NC(=O)[C@@H](N)Cc1c[nH]cn1)[C@@H](C)O)[C@@H](C)O)C(C)C)C(=O)N[C@@H](CC(N)=O)C(=O)N[C@@H](Cc1ccc(O)cc1)C(N)=O` [PD31], the EC50 on human GLP1R was found to be 0.04 nM; on human GCGR it was 0.06 nM.

Regarding `CSCC[C@H](NC(=O)[C@H](CC(C)C)NC(=O)[C@H](Cc1c[nH]c2ccccc12)NC(=O)[C@H](CCC(N)=O)NC(=O)[C@@H](NC(=O)[C@H](Cc1ccccc1)NC(=O)[C@H](CC(=O)O)NC(=O)[C@H](CCC(N)=O)NC(=O)[C@H](C)NC(=O)[C@H](CCCNC(=N)N)NC(=O)[C@H](CCCNC(=N)N)NC(=O)[C@H](CO)NC(=O)[C@H](CC(=O)O)NC(=O)[C@H](CC(C)C)NC(=O)[C@H](Cc1c[nH]c2ccccc12)NC(=O)[C@H](Cc1c[nH]cn1)NC(=O)[C@H](CO)NC(=O)[C@H](Cc1ccc(O)cc1)NC(=O)[C@H](CC(=O)O)NC(=O)[C@H](CO)NC(=O)[C@H](Cc1ccccc1)NC(=O)[C@H](Cc1ccccc1)NC(=O)[C@@H](NC(=O)CNC(=O)[C@H](CCC(N)=O)NC(=O)[C@H](CO)NC(=O)[C@@H](N)Cc1c[nH]cn1)[C@@H](C)O)C(C)C)C(=O)N[C@@H](CC(N)=O)C(=O)N[C@H](C(N)=O)[C@@H](C)O` [PD43], the EC50 on human GLP1R turned out to be 0.04 nM; at human GCGR, 0.03 nM.

Turning to `CC(C)C[C@H](NC(=O)[C@H](Cc1ccc(O)cc1)NC(=O)[C@H](CCCCN)NC(=O)[C@H](CO)NC(=O)[C@H](Cc1ccc(O)cc1)NC(=O)[C@H](CC(=O)O)NC(=O)[C@H](CO)NC(=O)[C@@H](NC(=O)[C@H](Cc1ccccc1)NC(=O)[C@@H](NC(=O)CNC(=O)[C@H](CCC(N)=O)NC(=O)[C@H](CO)NC(=O)[C@@H](N)Cc1c[nH]cn1)[C@@H](C)O)[C@@H](C)O)C(=O)N[C@@H](CC(=O)O)C(=O)N[C@@H](Cc1c[nH]c2ccccc12)C(=O)N[C@@H](CCCNC(=N)N)C(=O)N[C@@H](CCCNC(=N)N)C(=O)N[C@@H](C)C(=O)N[C@@H](CCC(N)=O)C(=O)N[C@@H](CC(=O)O)C(=O)N[C@@H](Cc1ccccc1)C(=O)N[C@H](C(=O)N[C@@H](CCC(N)=O)C(=O)N[C@@H](Cc1c[nH]c2ccccc12)C(=O)N[C@@H](CC(C)C)C(=O)N[C@@H](CCC(N)=O)C(=O)N[C@@H](CC(N)=O)C(=O)N[C@H](C(N)=O)[C@@H](C)O)C(C)C` [PD44], the EC50 on human GLP1R was 0.01 nM; on human GCGR, 0.02 nM. The “balance of activity at the GCG and GLP-1 receptors” value at human GCGR (in words, both receptors) was “relatively balanced potent activity at the GCG and GLP-1 receptors”.

For the molecule `CC(C)C[C@H](NC(=O)[C@H](CC(C)C)NC(=O)[C@H](Cc1c[nH]c2ccccc12)NC(=O)[C@H](CC(=O)O)NC(=O)[C@@H](NC(=O)[C@H](Cc1ccccc1)NC(=O)[C@H](CC(=O)O)NC(=O)[C@H](CCC(N)=O)NC(=O)[C@H](C)NC(=O)[C@H](CCCNC(=N)N)NC(=O)[C@H](CCCNC(=N)N)NC(=O)[C@H](CO)NC(=O)[C@H](CC(=O)O)NC(=O)[C@H](CC(C)C)NC(=O)[C@H](Cc1ccc(O)cc1)NC(=O)[C@H](CCCCN)NC(=O)[C@H](CO)NC(=O)[C@H](Cc1ccc(O)cc1)NC(=O)[C@H](CC(=O)O)NC(=O)[C@H](CO)NC(=O)[C@@H](NC(=O)[C@H](Cc1ccccc1)NC(=O)[C@@H](NC(=O)CNC(=O)[C@H](CCC(N)=O)NC(=O)[C@H](CO)NC(=O)[C@@H](N)Cc1c[nH]cn1)[C@@H](C)O)[C@@H](C)O)C(C)C)C(=O)N[C@@H](CC(N)=O)C(=O)N[C@@H](C)C(N)=O` [PD48], the EC50 at human GLP1R came to 0.02 nM; on human GCGR it was 0.07 nM.

Turning to `CC[C@H](C)[C@H](NC(=O)[C@H](CC(C)C)NC(=O)[C@H](Cc1c[nH]c2ccccc12)NC(=O)[C@H](CC(=O)O)NC(=O)[C@@H](NC(=O)[C@H](Cc1ccccc1)NC(=O)[C@H](CC(=O)O)NC(=O)[C@H](CCC(N)=O)NC(=O)[C@H](C)NC(=O)[C@H](CCCNC(=N)N)NC(=O)[C@H](CCCNC(=N)N)NC(=O)[C@H](CO)NC(=O)[C@H](CC(=O)O)NC(=O)[C@H](CC(C)C)NC(=O)[C@H](Cc1ccc(O)cc1)NC(=O)[C@H](CCCCN)NC(=O)[C@H](CO)NC(=O)[C@H](Cc1ccc(O)cc1)NC(=O)[C@H](CC(=O)O)NC(=O)[C@H](CO)NC(=O)[C@@H](NC(=O)[C@H](Cc1ccccc1)NC(=O)[C@@H](NC(=O)CNC(=O)[C@H](CCC(N)=O)NC(=O)[C@H](CO)NC(=O)[C@@H](N)Cc1c[nH]cn1)[C@@H](C)O)[C@@H](C)O)C(C)C)C(=O)N[C@@H](CC(N)=O)C(=O)N[C@@H](CO)C(N)=O` [PD50], the EC50 at human GLP1R is 0.01 nM; at human GCGR, 0.02 nM.

With `CSCC[C@H](NC(=O)[C@H](CC(C)C)NC(=O)[C@H](Cc1c[nH]c2ccccc12)NC(=O)[C@H](CCC(N)=O)NC(=O)[C@@H](NC(=O)[C@H](Cc1ccccc1)NC(=O)[C@H](CC(=O)O)NC(=O)[C@H](CCC(N)=O)NC(=O)[C@H](C)NC(=O)[C@H](CCCNC(=N)N)NC(=O)[C@H](CCCNC(=N)N)NC(=O)[C@H](CO)NC(=O)[C@H](CC(=O)O)NC(=O)[C@H](CC(C)C)NC(=O)[C@H](Cc1ccc(O)cc1)NC(=O)[C@H](CCCCN)NC(=O)[C@H](CO)NC(=O)[C@H](Cc1ccc(O)cc1)NC(=O)[C@H](CC(=O)O)NC(=O)[C@H](CO)NC(=O)[C@@H](NC(=O)[C@H](Cc1ccccc1)NC(=O)[C@@H](NC(=O)CNC(=O)[C@H](Cc1c[nH]cn1)NC(=O)[C@H](CO)NC(=O)[C@@H](N)Cc1c[nH]cn1)[C@@H](C)O)[C@@H](C)O)C(C)C)C(=O)N[C@H](C(=O)N[C@H](C(N)=O)[C@@H](C)O)[C@@H](C)O` [PD51], the EC50 worked out at 0.02 nM on human GLP1R and 0.03 nM on human GCGR.

In the case of `CSCC[C@H](NC(=O)[C@H](CC(=O)O)NC(=O)[C@H](CC(C)C)NC(=O)[C@H](Cc1ccc(O)cc1)NC(=O)[C@H](CCCCN)NC(=O)[C@H](CO)NC(=O)[C@H](Cc1ccc(O)cc1)NC(=O)[C@H](CC(=O)O)NC(=O)[C@H](CO)NC(=O)[C@@H](NC(=O)[C@H](Cc1ccccc1)NC(=O)[C@@H](NC(=O)CNC(=O)[C@H](CCC(N)=O)NC(=O)[C@H](CO)NC(=O)[C@@H](N)Cc1c[nH]cn1)[C@@H](C)O)[C@@H](C)O)C(=O)N[C@@H](CCC(N)=O)C(=O)N[C@@H](CCCNC(=N)N)C(=O)N[C@@H](C)C(=O)N[C@@H](Cc1c[nH]cn1)C(=O)N[C@@H](CC(=O)O)C(=O)N[C@@H](Cc1ccccc1)C(=O)N[C@H](C(=O)N[C@@H](CCC(N)=O)C(=O)N[C@@H](Cc1c[nH]c2ccccc12)C(=O)N[C@@H](CC(C)C)C(=O)N[C@@H](CCSC)C(=O)N[C@@H](CC(N)=O)C(=O)N[C@H](C(N)=O)[C@@H](C)O)C(C)C` [PD55], the EC50 on human GLP1R and at human GCGR was 0.01 nM throughout.
